Results from article PMC2621304 (Analytical biochemistry, 2008).

Columns and labels:
[1] = biological target: T1, Rat AhR (Rattus norvegicus, UniProt P41738); assay: Competitive binding assay against [3H]-TCDD, recombinant rat AhR
T1 sequence (P41738 10-853): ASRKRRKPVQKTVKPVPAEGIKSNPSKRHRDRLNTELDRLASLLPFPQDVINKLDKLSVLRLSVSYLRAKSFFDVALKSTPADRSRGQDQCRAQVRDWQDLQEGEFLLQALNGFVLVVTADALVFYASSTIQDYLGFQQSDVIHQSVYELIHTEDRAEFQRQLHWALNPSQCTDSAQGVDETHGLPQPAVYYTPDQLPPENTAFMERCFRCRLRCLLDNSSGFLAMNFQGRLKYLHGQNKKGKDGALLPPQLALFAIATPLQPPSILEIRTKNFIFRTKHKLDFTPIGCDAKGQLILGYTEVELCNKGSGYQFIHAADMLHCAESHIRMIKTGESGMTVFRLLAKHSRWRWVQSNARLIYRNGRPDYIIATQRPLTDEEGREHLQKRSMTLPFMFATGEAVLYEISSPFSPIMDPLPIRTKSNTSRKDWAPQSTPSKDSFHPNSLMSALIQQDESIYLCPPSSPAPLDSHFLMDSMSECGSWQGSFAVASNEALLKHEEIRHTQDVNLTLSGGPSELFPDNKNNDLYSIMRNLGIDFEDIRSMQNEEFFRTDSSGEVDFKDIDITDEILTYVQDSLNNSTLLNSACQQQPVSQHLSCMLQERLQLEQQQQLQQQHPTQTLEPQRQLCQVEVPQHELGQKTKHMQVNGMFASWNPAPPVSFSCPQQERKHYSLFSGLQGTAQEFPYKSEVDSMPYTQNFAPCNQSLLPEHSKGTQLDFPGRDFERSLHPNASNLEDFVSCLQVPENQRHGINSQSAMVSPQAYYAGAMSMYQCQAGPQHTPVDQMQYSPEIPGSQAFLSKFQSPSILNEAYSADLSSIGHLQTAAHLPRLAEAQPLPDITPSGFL

[2] = biological target: T2, Human AhR (Homo sapiens, UniProt P35869); assay: Competitive binding assay against [3H]-TCDD, recombinant human AhR
T2 sequence (P35869 11-848): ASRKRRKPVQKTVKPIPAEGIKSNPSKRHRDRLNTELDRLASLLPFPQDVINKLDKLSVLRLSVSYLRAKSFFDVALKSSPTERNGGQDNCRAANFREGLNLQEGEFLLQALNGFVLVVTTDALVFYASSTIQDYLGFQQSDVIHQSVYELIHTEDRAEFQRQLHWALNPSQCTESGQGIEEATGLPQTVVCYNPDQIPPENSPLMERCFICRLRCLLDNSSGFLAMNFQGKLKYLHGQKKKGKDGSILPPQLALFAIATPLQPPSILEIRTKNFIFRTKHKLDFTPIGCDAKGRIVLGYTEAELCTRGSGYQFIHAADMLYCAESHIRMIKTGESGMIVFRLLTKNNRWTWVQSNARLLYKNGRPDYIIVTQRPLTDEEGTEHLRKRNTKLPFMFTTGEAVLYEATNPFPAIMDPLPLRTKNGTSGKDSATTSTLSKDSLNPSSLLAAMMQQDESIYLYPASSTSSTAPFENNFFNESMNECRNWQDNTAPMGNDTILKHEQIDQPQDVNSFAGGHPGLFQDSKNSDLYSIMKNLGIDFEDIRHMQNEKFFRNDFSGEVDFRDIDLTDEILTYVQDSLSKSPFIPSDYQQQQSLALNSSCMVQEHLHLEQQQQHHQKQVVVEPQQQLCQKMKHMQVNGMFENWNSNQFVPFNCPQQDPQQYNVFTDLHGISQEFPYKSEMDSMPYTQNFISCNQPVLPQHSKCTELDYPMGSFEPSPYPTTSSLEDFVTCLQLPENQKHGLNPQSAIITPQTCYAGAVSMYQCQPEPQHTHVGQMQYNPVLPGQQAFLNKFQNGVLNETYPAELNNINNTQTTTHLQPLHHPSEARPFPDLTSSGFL

[3] = Solubility of TCDD in protein solution; type: physicochemical; conditions: unpublished data
[4] = biological target: T1, Rat AhR; assay: [3H]-TCDD saturation binding, recombinant rat AhR in Sf9 cytosol
[5] = biological target: T2, Human AhR; assay: [3H]-TCDD saturation binding, recombinant human AhR in Sf9 cytosol; conditions: optimised conditions
[6] = biological target: T3, AhR in rat liver cytosol (Rattus norvegicus, UniProt P41738); assay: [3H]-TCDD saturation binding, rat liver cytosol
T3 sequence (P41738 10-853): T1 sequence (P41738 10-853)

| Compound | Ki [1] [nM] | Ki [2] [nM] | potency relative to TCDF and PCDD, human AhR [2] | other results |
| --- | --- | --- | --- | --- |
| Clc1cc2oc3cc(Cl)c(Cl)cc3c2cc1Cl [2,3,7,8-tetrachlorodibenzofuran] | 0.36 | 6.27 | – | – |
| Clc1cc2oc3c(Cl)c(Cl)c(Cl)cc3c2cc1Cl [2,3,4,7,8-pentachlorodibenzofuran] | 1.5 | 14.1 | two-fold less potent | potency as ligand relative to PCDD, rat AhR ([1]; relative to PCDD): three-fold less potent |
| Clc1ccc(-c2cc(Cl)c(Cl)c(Cl)c2)cc1Cl [PCB126, polychlorinated biphenyl 126] | 24.7 | 736 | – | fold less potent than TCDD, rat AhR ([1]; relative to TCDD): ~50 fold; fold less potent as a ligand than TCDD, human AhR ([2]; relative to TCDD): ~40 fold |
| Clc1cc2c(cc1Cl)Oc1cc(Cl)c(Cl)cc1O2 [TCDD, 2,3,7,8-tetrachlorodibenzo-p-dioxin] | 0.55 | 15.4 | two-fold less potent | solubility in protein solution [3]: declines dramatically at concentrations much in excess of 2 nM; Kd ([4]; Kd (typical experiment, Fig. 5A), MOI of 0.1, typical experiment): 1.35 nM; Kd ([4]; Kd for TCDD, recombinant rat AhR, MOI of 0.1, n=6 independent determinations): 1.34 ± 0.32 nM; Bmax, recombinant rat AhR ([4]; MOI of 0.1, [3H]-TCDD): 1.5±0.37 pmol/ mg cytosolic protein; Bmax (typical experiment, Fig. 5A) ([4]; MOI of 0.1, typical experiment): 1.83 pmol/mg; Kd ([5]; Kd for TCDD, human AhR, n=6): 2.77 ± 0.94 nM; Bmax, human AhR ([5]; [3H]-TCDD): 0.46±0.12 pmol/mg cytosolic protein; Kd ([6]; apparent Kd for TCDD, saturation binding, mean ± Standard deviation, n=6): 1 ± 0.45 nM; maximal binding capacity (Bmax) ([6]; per mg cytosolic protein, [3H]-TCDD): 52 fmol/mg |
| Clc1cc2c(cc1Cl)Oc1c(cc(Cl)c(Cl)c1Cl)O2 [1,2,3,7,8-pentachlorodibenzo-p-dioxin] | 0.46 | 7.62 | – | – |
